Test results published in patent publication US20240116985A1, “STAPLED PEPTIDES AND METHODS THEREOF” (priority 2020, published 2024).
In brackets after ≈: the same amount, converted by molar mass. Several values for one entry are separate records, joined by “and”; a condition that tells them apart may be missing. Identical values can stand only once. Like-named read-outs stand apart in the source and are kept apart here. Blank lines part the entries; values can stand above or below the molecule they belong to.

Key:
[1] = Solubility in PBS; type: physicochemical; conditions: Solubility (uM)
Outline: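 The PBS solution was ultracentrifuged and the supernatant analyzed by HPLC. Its peak area was divided by that of a 50 μM peptide DMSO reference injection and multiplied by 50 uM to give solubility.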

[2] = system: TCF/LEF luciferase Reporter in DLD1 cells; experiment: TCF reporter assay (DLD1 TCF/LEF luciferase reporter, Bright-Glo); type: cell-based; conditions: for DLD1 TCF c2 BrightGlo % Inhibition: replicates
Outline: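 DLD1 cells stably carrying a TCF/LEF luciferase reporter were plated at 5000 cells/well in RPMI + 4% FBS and treated overnight with a 1:2 compound dilution series. Bright-Glo luminescence read on day 3; viability by CellTiter-Glo. Absolute IC50 determined.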

[3] = target: T1, full-length beta-Catenin (Uniprot ID P35222) (Homo sapiens, UniProt P35222); experiment: Fluorescence polarization IC50 (beta-catenin / 5FAM-TCF4 10-53 competition); type: binding; conditions: read-out: beta-Catenin FP IC50
T1 construct: 10 nM full-length beta-Catenin (Uniprot ID P35222)
T1 sequence (P35222 1-781): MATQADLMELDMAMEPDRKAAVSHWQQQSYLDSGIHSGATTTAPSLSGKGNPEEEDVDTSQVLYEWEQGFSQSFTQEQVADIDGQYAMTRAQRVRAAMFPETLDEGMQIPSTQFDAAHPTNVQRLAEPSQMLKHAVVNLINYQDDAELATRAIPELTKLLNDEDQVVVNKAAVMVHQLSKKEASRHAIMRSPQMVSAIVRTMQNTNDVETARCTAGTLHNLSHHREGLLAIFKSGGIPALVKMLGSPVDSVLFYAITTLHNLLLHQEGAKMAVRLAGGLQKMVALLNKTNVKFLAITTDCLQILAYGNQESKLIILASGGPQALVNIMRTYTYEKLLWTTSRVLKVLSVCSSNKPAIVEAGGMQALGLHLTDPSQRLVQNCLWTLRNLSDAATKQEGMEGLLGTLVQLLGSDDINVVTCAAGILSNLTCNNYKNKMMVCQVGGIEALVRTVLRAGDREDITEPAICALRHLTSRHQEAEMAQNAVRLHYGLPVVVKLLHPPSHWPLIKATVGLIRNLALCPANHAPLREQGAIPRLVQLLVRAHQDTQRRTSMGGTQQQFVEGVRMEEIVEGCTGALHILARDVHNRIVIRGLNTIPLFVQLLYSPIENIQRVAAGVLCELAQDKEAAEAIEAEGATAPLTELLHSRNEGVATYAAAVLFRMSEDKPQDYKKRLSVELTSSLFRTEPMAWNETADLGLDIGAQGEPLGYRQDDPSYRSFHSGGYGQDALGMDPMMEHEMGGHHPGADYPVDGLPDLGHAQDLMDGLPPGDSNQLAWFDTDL

[4] = target: T2, beta-catenin/TCF4 engagement (Homo sapiens, UniProt P35222); experiment: Nano-BRET target engagement assay (B-cat-Halo & TCF4-Luc in HEK293 cells); type: cell-based; conditions: absolute IC50; read-out: NanoBRET Abs IC50
T2 construct: expressed in transfected cells; host or cells: HEK293
T2 sequence (P35222 1-781): T1 sequence (P35222 1-781)

[5] = CHI Log D procedure; type: physicochemical; conditions: pH 7.4, CHI Log D
[6] = absolute IC50, read-out: DLD1 reporter assay Abs IC50
[7] = read-out: DLD1 4% Abs IC50, DLD1 4%

Compound: CC(=O)N1CCC[C@]12CC=CCCCC1(CCCC=CCCCOC(=O)N3CC[C@@](C(=O)N[C@@H](Cc4ccccc4Cl)C(=O)N[C@@H](Cc4csc5ccccc45)C(=O)N[C@@H](C(N)=O)[C@H](C)O)(C3)NC(=O)[C@H](CC(N)=O)NC(=O)[C@H](Cc3ccccc3)NC(=O)[C@H](C)NC(=O)[C@H](C)NC(=O)[C@H](CC(=O)O)NC(=O)[C@H](CC(=O)O)NC1=O)NC(=O)[C@H](CC(C)(C)C)NC(=O)[C@H](CCC(=O)O)NC2=O (stereo partly drawn) [I-1029, Ac-PL3-Glu-Npg-B5-Asp-Asp-Ala-Ala-Phe-Asn-PyrS2-2C1F-BztA-dThr-NH2]
Solubility [1]: 49 µM (≈ 94.7 µg/mL)
IC50 [2, 6]: > 20 µM
IC50 [3]: 0.823 µM
IC50 [4]: > 20 µM
chromatographic logD [5]: 2.36

Compound: CC(=O)N1CCC[C@]12CC=CCCCC1(CCCC=CCCCOC(=O)N3CC[C@@](C(=O)N[C@@H](Cc4ccccc4Cl)C(=O)N[C@@H](Cc4csc5ccccc45)C(=O)N[C@@H](C(N)=O)[C@H](C)O)(C3)NC(=O)[C@H](CC(C)C)NC(=O)[C@H](Cc3ccccc3)NC(=O)[C@H](C)NC(=O)[C@H](C)NC(=O)[C@H](CC(=O)O)NC(=O)[C@H](CC(=O)O)NC1=O)NC(=O)[C@H](CC(C)(C)C)NC(=O)[C@H](CC(=O)O)NC2=O (stereo partly drawn) [I-1035, Ac-PL3-Asp-Npg-B5-Asp-Asp-Ala-Ala-Phe-Leu-PyrS2-2C1F-BztA-dThr-NH2]
Solubility [1]: 28 µM (≈ 53.7 µg/mL)
IC50 [2, 6]: > 20 µM
IC50 [3]: 0.021 µM
IC50 [4]: 10.2 µM
chromatographic logD [5]: 2.63

Now those with a lower IC50 [2, 6], led by results:

Solubility [1]: 47 µM (≈ 88.9 µg/mL)
IC50 [2, 6]: 9 µM
IC50 [2, 7]: 5.7 µM
IC50 [3]: 0.005 µM
IC50 [4]: 8.9 µM
chromatographic logD [5]: 2.27
Compound: CC(=O)N1CCC[C@]12CC=CCCCC1(CCCC=CCCCOC(=O)N3CC[C@@](C(=O)N[C@@H](Cc4ccccc4Cl)C(=O)N[C@@H](Cc4csc5ccccc45)C(=O)N[C@@H](CO)C(N)=O)(C3)NC(=O)[C@H]([C@@H](C)O)NC(=O)[C@H](Cc3ccccc3)NC(=O)[C@H](C)NC(=O)[C@H](C)NC(=O)[C@H](CC(=O)O)NC(=O)[C@H](CC(=O)O)NC1=O)NC(=O)[C@H](CC(C)(C)C)NC(=O)[C@H](CC(=O)O)NC2=O (stereo partly drawn) [I-1015, Ac-PL3-Asp-Npg-B5-Asp-Asp-Ala-Ala-Phe-Thr-PyrS2-2C1F-BztA-Ser-NH2]

Solubility [1]: 43 µM (≈ 81.9 µg/mL)
IC50 [2, 6]: 11.2 µM
IC50 [3]: 0.005 µM
IC50 [4]: 24.8 µM
chromatographic logD [5]: 2.45
Compound: CC(=O)N1CCC[C@]12CC=CCCCC1(CCCC=CCCCOC(=O)N3CC[C@@](C(=O)N[C@@H](Cc4ccccc4Cl)C(=O)N[C@@H](Cc4csc5ccccc45)C(=O)N[C@@H](CO)C(N)=O)(C3)NC(=O)[C@H](CO)NC(=O)[C@H](Cc3ccccc3)NC(=O)[C@H](C)NC(=O)[C@H](C)NC(=O)[C@H](CC(=O)O)NC(=O)[C@H](CC(=O)O)NC1=O)NC(=O)[C@H](CC1CCCCC1)NC(=O)[C@H](CC(=O)O)NC2=O (stereo partly drawn) [I-1050, Ac-PL3-Asp-Cha-B5-Asp-Asp-Ala-Ala-Phe-Ser-PyrS2-2C1F-BztA-Ser-NH2]
DLD1 TCF c2 BrightGlo % Inhibition ([2]; first dose = 20 uM (plate map), 20 µM): 61.5% and 59.8% and 58.7%
DLD1 TCF c2 BrightGlo % Inhibition ([2]; 0.625 µM): 13.7% and 5.5% and 6.1%
DLD1 TCF c2 BrightGlo % Inhibition ([2]; 1.25 µM): 6.8% and −0.9% and −4.5%
DLD1 TCF c2 BrightGlo % Inhibition ([2]; 2.5 µM): 6.2% and 1.9% and −2.2%
DLD1 TCF c2 BrightGlo % Inhibition ([2]; 10 µM): 50.8% and 46.4% and 39.4%
DLD1 TCF c2 BrightGlo % Inhibition ([2]; third dose = 5 uM (plate map), 5 µM): 25.4% and 24.7% and 12.9%

Solubility [1]: 48 µM (≈ 90.2 µg/mL)
IC50 [2, 6]: 8.3 µM
IC50 [2, 7]: 7.8 µM
IC50 [3]: 0.005 µM
IC50 [4]: 9.6 µM
chromatographic logD [5]: 2.22
Compound: CC(=O)N1CCC[C@]12CC=CCCCC1(CCCC=CCCCOC(=O)N3CC[C@@](C(=O)N[C@@H](Cc4ccccc4Cl)C(=O)N[C@@H](Cc4csc5ccccc45)C(=O)N[C@@H](CO)C(N)=O)(C3)NC(=O)[C@H](CO)NC(=O)[C@H](Cc3ccccc3)NC(=O)[C@H](C)NC(=O)[C@H](C)NC(=O)[C@H](CC(=O)O)NC(=O)[C@H](CC(=O)O)NC1=O)NC(=O)[C@H](CC(C)(C)C)NC(=O)[C@H](CC(=O)O)NC2=O (stereo partly drawn) [I-1019, Ac-PL3-Asp-Npg-B5-Asp-Asp-Ala-Ala-Phe-Ser-PyrS2-2C1F-BztA-Ser-NH2]
